{"source": "patent US7144866B2", "about": "“Avermectin derivatives” (The Kitasato Institute, priority 2000, dated 2006)", "key": {"[1]": {"system": "Caenorhabditis elegans", "test": "Antiparasitic activity against Caenorhabditis elegans in a 96 well microplate, movement graded 0 to 3, MIC", "assay_type": "cell-based", "details": "concentration required to give Indication 2 (or 3) for caenorhabditis elegans; incubated at 20° C., observed after 24 and 48 hours", "source_text": "(§1) Methods for determining antiparasitic effects of the compounds disclosed by the present invention are explained below.\n(§2) As model insects for simple determination of antiparasitic and insecticidal activities, those insects are desired which can be easily obtained and bred in laboratories, and have no pathogenicity to a human. Caenorhabditis elegans, an unparasitic eelworm widely used in experiments of genetics, was used as a typical steam worm, and artemia salina used as feed for tropical fish and named Brine shrimp, was used instead of insects. […]\n(§3) Each well of a 96 well microplate was filled with the solution of the test compound (methanol as a solvent), and the solvent was removed using a vacuum pump, then 250 μl of the assay medium was added to each wells (the assay medium was prepared by dissolving 7.5 mM sodium hydrogencarbonate, 7.5 mM potassium chloride, 7.5 mM calcium chloride dihydrate and 7.5 mM magnesium sulfate heptahydrate in distilled water and adding 0.01% of lecithin to the solution), and then the microplate was shaken using a microplate mixer for 15 minutes. […] The results were compared to those obtained without addition of the test compound, and evaluated by 4 grades. […]"}, "[2]": {"system": "artemia salina", "test": "Insecticidal model activity against artemia salina (Brine shrimp) larvae in a 96 well microplate, movement graded 0 to 3, MIC", "assay_type": "cell-based", "details": "concentration required to give Indication 2 (or 3) for artemia salina; incubated at 20° C., observed after 24 and 48 hours", "source_text": "as §1, §2, §3"}}, "data": [{"smiles": "CCC(C)C1O[C@]2(C=C[C@@H]1C)C[C@@H]1CC(C/C=C(\\C)[C@@H](OC3C[C@H](OC)[C@@H](OC4C[C@H](OC)[C@@H](O)[C@H](C)O4)[C@H](C)O3)[C@@H](C)/C=C/C=C3\\COC4[C@H](O)C(C)=CC(C(=O)O1)[C@]34O)O2", "note": "(some centres unmarked) [B1a*, avermectin B1a]", "values": [{"measurement": "C.E. minimum inhibitory concentration (MIC)", "setting": "[1]", "value": 2, "unit": "ng/mL"}, {"measurement": "A.S. minimum inhibitory concentration (MIC)", "setting": "[2]", "value": 0.5, "unit": "ng/mL"}]}]}
